How the values were obtained:
[1] = tested on: rat abdominal aorta (elastic lamina); test: Recovery of elastic fibra in cultured abdominal aorta after nicotine (Example 8); conditions: for Evaluation (rate of destruction): as Table 9; for Rate of destruction (%) of elastic lamina: rat abdominal aorta, nicotine 24 h, then nothing, 24 h nicotine-free medium, or 24 h β-caryophyllene 100 nM
[2] = tested on: rat abdominal aorta (elastic lamina); test: Rate of destruction of elastic lamina in cultured abdominal aorta with nicotine, EVG staining (Examples 5 to 7); conditions: as Table 7 rate of destruction
Description: Unnecessary surrounding tissues were removed from the harvested abdominal aorta, which was then dipped in a medium for aorta culture. […] These abdominal aorta specimens were cultured in a medium for aorta culture under conditions of 37° C. and 5% CO2 for 24 hours. […] Specifically, the aortic wall was stained by Elastica van Gieson (EVG) staining and immunohistochemical staining. The quantitative analysis of the histochemical stain was carried out using ImageJ software (National Institutes of Health, Bethesda, Maryland, USA). Since an elastic lamina waveform is EVG-stained, the destruction of the vascular wall was estimated from the ratio of its area. The rate of destruction of the wavy configuration of elastic lamina was calculated by dividing a destroyed region (indicated by flattening and fragmentation of elastic lamina) by the whole region of the elastic lamina.

[3] = tested on: elastic lamina of thoracic aorta and abdominal aorta; test: Rate of destruction of elastic lamina in aorta of mice given nicotine water and inhaled β-caryophyllene (Example 9); assay type: in vivo, ddy mice; conditions: for Evaluation (rate of destruction): as Table 10; for Rate of destruction (%) of elastic lamina: mouse aorta, nicotine 0.5 mg/mL in drinking water and/or β-caryophyllene inhalation 1 hour per exposure day
Description: After the test, thoracic aorta and abdominal aorta were obtained by dissection. Each harvested aorta was Elastica van Gieson (EVG)-stained to measure and evaluate the rate of destruction of elastic lamina.

CN1CCCC1c1cccnc1 (single isomer, unassigned) [Comparative Example 4, nicotine]
Evaluation (rate of destruction) [1]: B (a rate of destruction of more than 35% was given B)
Rate of destruction (%) of elastic lamina [1]: 54%

CN1CCCC1c1cccnc1 (single isomer, unassigned) [Comparative Example 5, nicotine]
Evaluation (rate of destruction) [1]: B (a rate of destruction of more than 35% was given B)
Rate of destruction (%) of elastic lamina [1]: 58%

CN1CCCC1c1cccnc1 (stereo not drawn) [Comparative Example 2, nicotine, reference compound]
Evaluation (rate of destruction) [2]: B (When the rate of destruction of the elastic lamina waveform was 30% or more, the sample was evaluated as having a state in which the vascular wall was destroyed (evaluation B))

C=C1CC/C=C(\C)CC[C@@H]2[C@@H]1CC2(C)C [Comparative Example 7, β-caryophyllene]
Evaluation (rate of destruction) [3]: A (When the rate of destruction of the elastic lamina waveform was less than 30%, the sample was evaluated as having a state in which the vascular wall was not destroyed (evaluation A))
Rate of destruction (%) of elastic lamina [3]: 11%

CN1CCCC1c1cccnc1 (stereo not drawn) [Comparative Example 8, nicotine, reference compound]
Evaluation (rate of destruction) [3]: B (When the rate of destruction of the elastic lamina waveform was 30% or more, the sample was evaluated as having a state in which the vascular wall was destroyed (evaluation B))
Rate of destruction (%) of elastic lamina [3]: 42%

C=C1CC/C=C(\C)CC[C@@H]2[C@@H]1CC2(C)C [Example 5, β-caryophyllene]
Evaluation (rate of destruction) [2]: A (When the rate of destruction of the elastic lamina waveform was less than 30%, the sample was evaluated as having a state in which the vascular wall was not destroyed (evaluation A))
Rate of destruction (%) of elastic lamina [3]: 15%

C=C1CC/C=C(\C)CC[C@@H]2[C@@H]1CC2(C)C [Example 8, β-caryophyllene]
Evaluation (rate of destruction) [1]: A (A rate of destruction of 35% or less was given evaluation A)
Rate of destruction (%) of elastic lamina [1]: 18%

C=C1CC/C=C(\C)CC[C@@H]2[C@@H]1CC2(C)C [Example 9, β-caryophyllene]
Evaluation (rate of destruction) [3]: A (When the rate of destruction of the elastic lamina waveform was less than 30%, the sample was evaluated as having a state in which the vascular wall was not destroyed (evaluation A))
Rate of destruction (%) of elastic lamina [3]: 15%
